Experimental findings from patent publication US20200393377A1, “Microscopy for Rapid Antibiotic Susceptibility Test Using Membrane Fluorescence Staining and Spectral Intensity Ratio” (POCARED Diagnostics LTD., priority 2019, published 2020) are described below.

Experiment [1] relates to E. coli. Put plainly: MIC by SIR from flow cytometer measurement. The class given is cell-based. The following applies: SIR vs antibiotic concentration. As to the method:
The MIC is calculated by plotting the spectral intensity ratio (SIR) as a function of the antimicrobial concentration and approximating it to a step function in the form of
Where a, b, and c are parameters and erf is the error function. The parameters are used to approximate the measured SIR to a step function; a is a scaling parameter, b determines the step slope, and c is the MIC value, or a function of it. The SIR values are used to determine the erf parameters by a best fit approximation.
We measured E. coli exposed to gentamicin at 4 concentration. The MIC was calculated using the spectral intensity ratio (SIR) calculation and step function estimation using MATLAB software.
FIG. 3 provides plots showing the SIR as a function of the antibiotic concentration for the InCell measurement (top) and flow cytometer measurement (bottom). As can been seen from the graphs, their shapes are similar, although the InCell measurement has less data points, and the MIC is 0.5 μg/ml in both cases. Live bacteria population (0 μg/ml) have lower SIR then the dead ones (>0.5 μg/ml). At the MIC (0.5 ug/ml) there is a large increase in the SIR. […] The SIR then decreases at very high (>4 ug/ml) antibiotic concentrations.
Background: In flow cytometry, cells or beads pass a laser one at a time.

Experiment [2] has as its system E. coli. Put plainly: Rapid AST/MIC by membrane fluorescence staining, SIR from IN Cell confocal imaging. The class given is cell-based. The following applies: InCell measurement; SIR (610 nm/530 nm) vs antibiotic concentration, step function fit; 2-4 hours antibiotic exposure at 37° C.; Synaptogreen/FM 1-43 dye. The protocol:
In general, the method includes blood culture centrifugation, bacterial antimicrobial exposure for 2 to 4 hours, bacteria staining with a single fluorescence dye followed by laser confocal microscopy, and mathematical analysis.
Sample Preparation—Macro Dilution Method • a) Antimicrobial (Gentamicin) stock solutions were prepared according to CLSI recommendations, and were diluted in CAMHB, to a concentration which was 2 fold higher from the highest concentration recommended for each antimicrobial combination (“Class II Special Controls Guidance Document: Antimicrobial Susceptibility Test (AST) Systems”, Aug. […] The images were taken through a green filter (530 nm) and red filter (615 nm) one after the other for each image. • i) images were analyzed using GE In Cell Investigator image analysis software. For each image the following operation were performed; segmentation for identifying the bacteria, for each bacteria the intensity in the green and […] were recorded, and a scatter plot of the bacteria population was plotted (x axis—intensity in the green, y axis—intensity in the red).
To quantify the influence of a certain antimicrobial exposure we define the spectral intensity ratio (SIR) as follows: […]
The MIC is calculated by plotting the spectral intensity ratio (SIR) as a function of the antimicrobial concentration and approximating it to a step function in the form of […]

With gentamicin, the MIC in experiment [1] and in experiment [2] was 0.5 µg/mL throughout.

By MIC is commonly meant the lowest concentration found to suppress growth.
